Experimental data as given in patent EP0631668B1, “DETERMINATION OF BINDING AFFINITY USING MAGNETICALLY-LABELED BINDING MEMBERS” (ABBOTT LABORATORIES, priority 1992, dated 1993).

Biological target: T1, streptavidin-coated paramagnetic microparticle (Streptomyces avidinii, UniProt P22629)
T1 construct: purchased Advanced Magnetics, Cambridge, MA
Assay: Magnetically assisted avidin-biotin binding assay (competitive inhibition, balance readout)
Conditions: free biotin concentration 125 nanograms/milliliter (80 µl assayed); 12 milligrams at 0 nanograms/milliliter; Figure 6
Protocol: The following reagents and samples were used in a binding assay:
The magnetically-labeled reagent was a streptavidin-coated paramagnetic microparticle (Advanced Magnetics, Cambridge, MA; average one micron in diameter, with 5x10^8 particles per mg, supplied as a 5 mg/ml suspension).
Incubation was continued at 37° C for an additional 45 minutes. The wells were then emptied and washed with PBS using a wash bottle.
The magnetically-labeled reagent was first combined with the test sample, thereby forming a reaction mixture which was incubated for one hour at 37° C. […] The unbound magnetically-labeled reagent was removed from the reaction mixture by means of magnetic attraction.

T1 sequence (P22629 25-183): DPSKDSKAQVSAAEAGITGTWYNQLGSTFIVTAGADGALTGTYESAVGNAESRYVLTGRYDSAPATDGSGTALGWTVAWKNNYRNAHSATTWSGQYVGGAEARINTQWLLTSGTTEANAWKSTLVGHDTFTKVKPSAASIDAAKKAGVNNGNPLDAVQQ

O=C(O)CCCC[C@@H]1SC[C@@H]2NC(=O)N[C@@H]21 [biotin]
force change detected by the balance means: zero
